Key:
[1] = tested on: salmonella typhimurium strains (TA 100, TA 1535, TA 98, and TA 1537); test: Back mutation test (genotoxicity in bacteria), Salmonella strains; conditions: TA 100, TA 1535, TA 98, TA 1537; compared with negative control
Procedure: In order to evaluate genotoxicity in bacteria, a back mutation test was performed using histidine-requiring salmonella typhimurium strains (TA 100, TA 1535, TA 98, and TA 1537) and an E. coli strain (E. coli WP2 uvrA). As a result, a positive control has a substantially greater colony number than a negative control. […] Accordingly, it was confirmed that the ginger extract and shogaol all had stability in the genotoxicity test.

[2] = tested on: rat primary mesencephalic dopaminergic cells; test: Protection of dopamine cells against MPP+ neurotoxicity (TH immunohistochemistry); format: cell-based; conditions: 0.01 μM, 10 μM MPP+ for 23 hours; MPP+ group 44.25±7.61% of a control
Procedure: (§1) Female Sprague-Dawley rats (2-week old) were used, and shogaol was obtained from WAKO Company (Japan).
(§2) Fetal mesencephalon tissues of Sprague-Dawley rats […] were desquamated, and mechanically dissociated by using a forcept. The tissues were treated with trypsin and the number of cells was counted, and the cells were seeded on a cover slip coated with poly-L-lysine (PLL), and then proliferated in an incubator including 5% CO2 and 95% air at a temperature of 37 °C for 5 days. A fetal bovine serum (FBS)-free media was treated with 0.01 μM or 0.1 μM of shogaol after the shogaol was diluted, or the ginger extract (the ethanol extract, the hexane fraction, the ethyl acetate fraction, the butanolfraction, and the water fraction prepared according to Example 1) after the ginger extract was diluted. […]
(§3) Cells immobilized by using 4% PFA were washed with PBS and then, dehydrated with 1% hydrogen peroxide for 15 minutes. […] After the color-producing using DAB, a cover slip was separated and then mounted on a slide by using a gel mount and the number of cells was counted.
(§4) Cells were color-produced by immunohistochemistry in the same manner as Experimental Example 3-1, and the number of cells was counted and the results are shown in FIGS. 8 and 9.

[3] = tested on: C57BL/6 mouse having MPTP-induced Parkinson's disease; test: Pole test in MPTP-induced Parkinson's disease model; format: in vivo; conditions: 10 mg/kg oral once per day for 5 days, MPTP 30 mg/kg i.p.
Procedure: 7-week old C57BL/6 based male mice (19-22 g) were obtained and nurtured in an animal laboratory at Kyunghee University Graduate School of East-West Medicine
Science for one week or more for adaptation. Water and feed were freely supplied, and the temperature (22±2[…]), humidity (53±3%), and a cycle of brightness and darkness (12 hours) were automatically controlled. Shogaol used was obtained from WAKO Company (Japan).
Mice were divided into three groups, each of which consisted of 6 mice. A first group (control) and a second group (MPTP group) were orally administered once per day with 10% dimethyl sulfoxide in an amount of 5 ml per mouse weight kg for 5 days, and a third group (shogaol-administered group) was orally administered once per day with 10 mg/kg of shogaol dissolved in 10% dimethyl sulfoxide for 5 days. […]
On a day after the last day of the 5-day administration period, a pole test was performed using a pole having a height of 50 cm and a diameter of 1 cm. A C57bl/6 mouse was placed on the pole with its head upward, and a time during which the mouse turns a summit of the pole at an angle of 180° and moves downward until its four feet touch the ground was measured. […]

SD rats = test: Acute toxicity test; conditions: 0.1 mg/10 ml/kg to 5000 mg/10 ml/kg, 2 weeks
[4] = tested on: C57BL/6 mouse having MPTP-induced Parkinson's disease; test: Dopamine cell protective activity in striatum and substantia nigra (TH immunohistochemistry), MPTP model; format: in vivo; conditions: 10 mg/kg oral once per day for 5 days, MPTP 30 mg/kg i.p., p<0.05 vs MPTP group
Procedure: Mice were divided into three groups, each of which consisted of 6 mice. A first group (control) and a second group (MPTP group) were orally administered once per day with 10% dimethyl sulfoxide in an amount of 5 ml per mouse weight kg for 5 days, and a third group (shogaol-administered group) was orally administered once per day with 10 mg/kg of shogaol dissolved in 10% dimethyl sulfoxide for 5 days. 2 hours after the oral administration, the first group (control) was intraperitoneally administered with saline in an amount of 5 ml per mouse weight kg for 5 days, and the second and third groups were intraperitoneally administered with 30 mg/kg of MPTP dissolved in saline for 5 days.
The mice of the respective groups were sacrificed after the pole test was completely performed, and brain tissues (striatum and substantia nigra) were isolated. […]
The mice of the respective groups were sacrificed after the pole test was completely performed, and brain tissues (striatum and substantia nigra) were isolated. Protection activity was evaluated using the isolated brain tissues in the same manner as in (1-2) above, and the results are shown in FIGS. 14 and 15. […]

[5] = tested on: rat primary mesencephalic dopaminergic cells; test: Protection of dopamine cells against 6-OHDA neurotoxicity (TH immunohistochemistry); format: cell-based; conditions: 0.01 μM, 10 μM 6-OHDA for 18 hours; 6-OHDA group 34.00±5.77% of the control
Procedure: as §1, §2, §3, §4

Compound: CCCCC/C=C/C(=O)CCc1ccc(O)c(OC)c1 [shogaol, (E)-1-(4-hydroxy-3-methoxyphenyl)dec-4-en-3-one]
- colony number (back mutation) [1]: the colony number was not increased
- number of dopamine positive cells [2]: 91.50±3.38%
- T-la (% of control), pole test [3]: 99.1 ± 8.11%
- body weight (SD rats): weight change with respect to a test material did not occur
- general symptom (SD rats): abnormal symptoms with respect to a test material were not found
- number of TH positive cells in substantia nigra ([4]; of a control): 70.30±4.86
- optical density of striatum (TH immunoreactivity) [4]: 80.11±1.97 % of a control
- number of dopamine positive cells [5]: 57.25±5.65%

— patent US9844521B2, “Pharmaceutical composition comprising ginger extract or shogaol” (UNIVERSITY-INDUSTRY COOPERATION GROUP OF KYUNG HEE …, priority 2008, dated 2017)
